Test results as given in PubChem BioAssay (NCI).
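The concentration for 50% growth inhibition is given as GI50. The concentration for full growth arrest is given as TGI.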

Assays:
Experiment in all cases: DTP human tumour cell line panel, 384-well format
OVCAR-4 ovarian = tested on: OVCAR-4 ovarian
A549 NSCLC = tested on: A549 NSCLC
DU-145 prostate = tested on: DU-145 prostate
KM12 colon = tested on: KM12 colon
HOP-92 NSCLC = tested on: HOP-92 NSCLC
A498 renal = tested on: A498 renal
SW-620 colon = tested on: SW-620 colon
BT-549 breast = tested on: BT-549 breast
OVCAR-3 ovarian = tested on: OVCAR-3 ovarian
NCI-H322M lung = tested on: NCI-H322M lung
UACC-62 melanoma = tested on: UACC-62 melanoma
HOP-62 NSCLC = tested on: HOP-62 NSCLC
MDA-MB-435 melanoma = tested on: MDA-MB-435 melanoma
TK-10 renal = tested on: TK-10 renal
SNB-19 CNS = tested on: SNB-19 CNS
ACHN renal = tested on: ACHN renal
RXF 393 renal = tested on: RXF 393 renal
UACC-257 melanoma = tested on: UACC-257 melanoma
UO-31 renal = tested on: UO-31 renal
COLO 205 colon = tested on: COLO 205 colon
786-0 renal = tested on: 786-0 renal
CCRF-CEM leukemia = tested on: CCRF-CEM leukemia
SK-OV-3 ovarian = tested on: SK-OV-3 ovarian
HCT-15 colon = tested on: HCT-15 colon
T-47D breast = tested on: T-47D breast
EKVX NSCLC = tested on: EKVX NSCLC
OVCAR-8 ovarian = tested on: OVCAR-8 ovarian
M14 melanoma = tested on: M14 melanoma
LOX IMVI melanoma = tested on: LOX IMVI melanoma
NCI-H522 lung = tested on: NCI-H522 lung
MDA-MB-231 breast = tested on: MDA-MB-231 breast
SK-MEL-28 melanoma = tested on: SK-MEL-28 melanoma
OVCAR-5 ovarian = tested on: OVCAR-5 ovarian
NCI-H226 lung = tested on: NCI-H226 lung
SNB-75 CNS = tested on: SNB-75 CNS
SF-268 CNS = tested on: SF-268 CNS
SF-539 CNS = tested on: SF-539 CNS
PC-3 prostate = tested on: PC-3 prostate
IGROV1 ovarian = tested on: IGROV1 ovarian
RPMI-8226 leukemia = tested on: RPMI-8226 leukemia
HT29 colon = tested on: HT29 colon
K-562 leukemia = tested on: K-562 leukemia
NCI-H23 lung = tested on: NCI-H23 lung
MALME-3M melanoma = tested on: MALME-3M melanoma
HS 578T breast = tested on: HS 578T breast
HL-60(TB) leukemia = tested on: HL-60(TB) leukemia
SF-295 CNS = tested on: SF-295 CNS
NCI-H460 NSCLC = tested on: NCI-H460 NSCLC
SN12C renal = tested on: SN12C renal
NCI/ADR-RES ovarian = tested on: NCI/ADR-RES ovarian
SR leukemia = tested on: SR leukemia
MOLT-4 leukemia = tested on: MOLT-4 leukemia
CAKI-1 renal = tested on: CAKI-1 renal

Nc1ncnc2c1ccn2[C@@H]1O[C@H]([C@H](O)c2ccc(Cl)c(F)c2)[C@@H](O)[C@H]1O
GI50 (OVCAR-4 ovarian): < 0.01 µM | TGI (OVCAR-4 ovarian): > 100 µM | GI50 (A549 NSCLC): > 100 µM | TGI (A549 NSCLC): > 100 µM | GI50 (DU-145 prostate): > 100 µM | TGI (DU-145 prostate): > 100 µM | GI50 (KM12 colon): < 0.01 µM | TGI (KM12 colon): > 100 µM | GI50 (HOP-92 NSCLC): > 100 µM | TGI (HOP-92 NSCLC): > 100 µM | GI50 (A498 renal): 85.1 µM | TGI (A498 renal): > 100 µM | GI50 (SW-620 colon): > 100 µM | TGI (SW-620 colon): > 100 µM | GI50 (BT-549 breast): > 100 µM | TGI (BT-549 breast): > 100 µM | GI50 (OVCAR-3 ovarian): > 100 µM | TGI (OVCAR-3 ovarian): > 100 µM | GI50 (NCI-H322M lung): > 100 µM | TGI (NCI-H322M lung): > 100 µM | GI50 (UACC-62 melanoma): > 100 µM | TGI (UACC-62 melanoma): > 100 µM | GI50 (HOP-62 NSCLC): > 100 µM | TGI (HOP-62 NSCLC): > 100 µM | GI50 (MDA-MB-435 melanoma): > 100 µM | TGI (MDA-MB-435 melanoma): > 100 µM | GI50 (TK-10 renal): > 100 µM | TGI (TK-10 renal): > 100 µM | GI50 (SNB-19 CNS): > 100 µM | TGI (SNB-19 CNS): > 100 µM | GI50 (ACHN renal): > 100 µM | TGI (ACHN renal): > 100 µM | GI50 (RXF 393 renal): > 100 µM | TGI (RXF 393 renal): > 100 µM | GI50 (UACC-257 melanoma): > 100 µM | TGI (UACC-257 melanoma): > 100 µM | GI50 (UO-31 renal): > 100 µM | TGI (UO-31 renal): > 100 µM | GI50 (COLO 205 colon): > 100 µM | TGI (COLO 205 colon): > 100 µM | GI50 ([…]-0 renal): 72.9 µM | TGI (786-0 renal): > 100 µM | GI50 (CCRF-CEM leukemia): 33.9 µM | TGI (CCRF-CEM leukemia): > 100 µM | GI50 (SK-OV-3 ovarian): 50.3 µM | TGI (SK-OV-3 ovarian): > 100 µM | GI50 (HCT-15 colon): > 100 µM | TGI (HCT-15 colon): > 100 µM | GI50 (T-47D breast): < 0.01 µM | TGI (T-47D breast): > 100 µM | GI50 (EKVX NSCLC): 83.9 µM | TGI (EKVX NSCLC): > 100 µM | GI50 (OVCAR-8 ovarian): > 100 µM | TGI (OVCAR-8 ovarian): > 100 µM | GI50 (M14 melanoma): > 100 µM | TGI (M14 melanoma): > 100 µM | GI50 (LOX IMVI melanoma): > 100 µM | TGI (LOX IMVI melanoma): > 100 µM | GI50 (NCI-H522 lung): > 100 µM | TGI (NCI-H522 lung): > 100 µM | GI50 (MDA-MB-231 breast): > 100 µM | TGI (MDA-MB-231 breast): > 100 µM | GI50 (SK-MEL-28 melanoma): > 100 µM | TGI (SK-MEL-28 melanoma): > 100 µM | GI50 (OVCAR-5 ovarian): > 100 µM | TGI (OVCAR-5 ovarian): > 100 µM | GI50 (NCI-H226 lung): > 100 µM | TGI (NCI-H226 lung): > 100 µM | GI50 (SNB-75 CNS): > 100 µM | TGI (SNB-75 CNS): > 100 µM | GI50 (SF-268 CNS): > 100 µM | TGI (SF-268 CNS): > 100 µM | GI50 (SF-539 CNS): > 100 µM | TGI (SF-539 CNS): > 100 µM | GI50 (PC-3 prostate): 97.7 µM | TGI (PC-3 prostate): > 100 µM | GI50 (IGROV1 ovarian): 28.7 µM | TGI (IGROV1 ovarian): > 100 µM | GI50 (RPMI-8226 leukemia): 12.6 µM | TGI (RPMI-8226 leukemia): > 100 µM | GI50 (HT29 colon): 37.4 µM | TGI (HT29 colon): > 100 µM | GI50 (K-562 leukemia): 32.7 µM | TGI (K-562 leukemia): > 100 µM | GI50 (NCI-H23 lung): 52.9 µM | TGI (NCI-H23 lung): > 100 µM | GI50 (MALME-3M melanoma): 40.9 µM | TGI (MALME-3M melanoma): > 100 µM | GI50 (HS 578T breast): > 100 µM | TGI (HS 578T breast): > 100 µM | GI50 (HL-60(TB) leukemia): 77.1 µM | TGI (HL-60(TB) leukemia): > 100 µM | GI50 (SF-295 CNS): > 100 µM | TGI (SF-295 CNS): > 100 µM | GI50 (NCI-H460 NSCLC): < 0.01 µM | TGI (NCI-H460 NSCLC): > 100 µM | GI50 (SN12C renal): 41.6 µM | TGI (SN12C renal): > 100 µM | GI50 (NCI/ADR-RES ovarian): > 100 µM | TGI (NCI/ADR-RES ovarian): > 100 µM | GI50 (SR leukemia): < 0.01 µM | TGI (SR leukemia): > 100 µM | GI50 (MOLT-4 leukemia): < 0.01 µM | GI50 (CAKI-1 renal): > 100 µM | TGI (CAKI-1 renal): > 100 µM
